# PubChem BioAssay (NCI)
#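 Test compounds were applied to cells in 96-well plates for 48 hours at 5 doses. TGI: total growth inhibition.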
# What was measured:
# Assay in all cases: growth of human tumour cells (NCI), 48 h
# OVCAR-8 ovarian = tested on: OVCAR-8 ovarian
# HL-60(TB) leukemia = tested on: HL-60(TB) leukemia
# SK-MEL-2 melanoma = tested on: SK-MEL-2 melanoma
# SF-295 CNS = tested on: SF-295 CNS
# NCI-H460 lung = tested on: NCI-H460 lung
# HCT-15 colon = tested on: HCT-15 colon
# MDA-N = tested on: MDA-N
# HOP-92 NSCLC = tested on: HOP-92 NSCLC
# BT-549 breast = tested on: BT-549 breast
# HCT-116 colon = tested on: HCT-116 colon
# NCI/ADR-RES ovarian = tested on: NCI/ADR-RES ovarian
# SK-MEL-28 melanoma = tested on: SK-MEL-28 melanoma
# RXF 393 renal = tested on: RXF 393 renal
# DU-145 prostate = tested on: DU-145 prostate
# HT29 colon = tested on: HT29 colon
# SNB-75 CNS = tested on: SNB-75 CNS
# UO-31 renal = tested on: UO-31 renal
# NCI-H522 lung = tested on: NCI-H522 lung
SMILES,TGI (OVCAR-8 ovarian) [µM],TGI (HL-60(TB) leukemia) [µM],TGI (SK-MEL-2 melanoma) [µM],TGI (SF-295 CNS) [µM],TGI (NCI-H460 lung) [µM],TGI (HCT-15 colon) [µM],TGI (MDA-N) [µM],TGI (HOP-92 NSCLC) [µM],TGI (BT-549 breast) [µM],TGI (HCT-116 colon) [µM],TGI (NCI/ADR-RES ovarian) [µM],TGI (SK-MEL-28 melanoma) [µM],TGI (RXF 393 renal) [µM],TGI (DU-145 prostate) [µM],TGI (HT29 colon) [µM],TGI (SNB-75 CNS) [µM],TGI (UO-31 renal) [µM],TGI (NCI-H522 lung) [µM]
O=[N+]([O-])c1cc2c(cc1/C=N/n1c(CO)nc3ccccc31)OCO2,> 100,> 100,> 100,> 100,> 100,> 100,> 100,> 100,> 100,> 100,> 100,> 100,> 100,> 100,> 100,> 100,> 100,–
CCOC(=O)/C(C#N)=C/c1ccnc2ccccc12,57,–,> 100,> 100,> 100,> 100,> 100,> 100,> 100,> 100,52,> 100,> 100,> 100,> 100,> 100,–,> 100
COc1ccc(C2SCC(=O)N2NC(=O)c2ccc(NC(C)=O)cc2)cc1 (configuration not stated),> 100,–,> 100,> 100,> 100,> 100,> 100,89.2,> 100,> 100,> 100,> 100,> 100,> 100,> 100,> 100,> 100,–
CN(C)CCCn1nc(N)c2nc3cc(Cl)ccc3nc21,> 100,–,> 75.7,> 100,> 100,> 100,> 100,76.7,> 100,> 100,> 100,35.7,> 100,> 100,> 100,> 100,> 92.6,> 100
CCOP(=O)(OCC)C(C#N)Cc1ccco1 (configuration not stated),> 10,> 10,> 10,> 10,> 10,> 10,> 10,> 10,> 10,> 10,> 10,> 10,> 10,> 10,> 10,> 10,> 10,–
C/C=C/C1OC(O)(C(C)C(O)[C@H](C)C2OC(=O)/C(OC)=C/C(C)=C/[C@@H](C)[C@@H](O)[C@@H](C)C(O)C(C)C/C(C)=C/C=C/C2OC)C[C@@H](OC2CC(O)C(OC(N)=O)C(C)O2)C1C (some centres not stated),15.7,–,< 0.01,< 0.01,1.36,13.3,1.11,< 0.01,12,1.42,> 68.6,3.18,1.91,16.2,1.54,2.12,13.8,< 0.01
CC1=Nc2sc3c(c2C2=NCCN12)CCCC3,50.6,61,84.5,98.7,39,> 100,44.2,–,43.4,44.7,54.4,65.4,61,> 100,36.5,> 100,50.5,41
O=c1[nH]nc(Cc2ccccc2)n1CCO,> 100,–,> 100,> 100,> 100,> 100,> 100,> 100,> 100,> 100,> 100,> 100,–,> 100,> 100,–,> 100,> 100
Nc1ccc(C(=O)c2cn(CCN3CCOCC3)c3ccccc23)c2ccccc12,52.7,44.8,> 100,> 100,> 100,43.3,> 100,–,58.3,> 100,65.3,> 100,–,> 100,55.9,–,> 100,> 100
CCOC(=O)CC(=O)Nc1cccc2[nH]cnc12,> 100,> 100,> 100,> 100,> 100,> 100,> 100,> 100,> 100,> 100,> 100,> 100,> 100,> 100,> 100,98.1,> 100,–
O=C(CNc1ccccc1[N+](=O)[O-])Nn1c(-c2ccccc2)nc2ccccc2c1=O,> 100,> 100,–,46.5,45.1,44.3,57.9,28.3,35.3,41.4,64.3,59.2,38.9,> 100,33.7,41.8,33.7,> 10
Cc1ccc(/C(O)=C/c2nc3ccccc3s/c2=N/CS(=O)(=O)c2ccc(C)cc2)cc1,> 10,> 10,–,> 10,–,> 10,> 10,> 10,> 10,> 10,> 10,> 10,–,> 10,> 10,> 10,–,> 10
CC(C)C(/C=C/c1ccc(Cl)c(Cl)c1)=N\NC(=O)N/N=C(/C=C/c1ccc(Cl)c(Cl)c1)C(C)C,> 100,> 100,–,> 100,> 100,> 100,> 100,> 100,> 100,–,> 100,> 100,–,> 100,> 100,> 100,> 100,> 100
O=CC12C3CCC1C2C(=O)C3 (configuration not stated),> 100,–,> 100,> 100,> 100,> 100,> 100,> 100,> 100,> 100,> 100,> 100,> 100,> 100,> 100,> 100,–,> 100
O=c1c(=O)c2c(Br)sc(Br)c2c1=O,37.4,–,41.1,> 100,> 100,40.1,32.8,33,36.6,37.8,> 100,28.7,34.7,> 100,57.4,75.2,51.4,32
CN(c1ccccc1Cl)S(=O)(=O)c1ccc([N+](=O)[O-])cc1,> 100,> 100,> 100,> 100,> 100,> 100,> 100,–,> 100,> 100,> 100,> 100,> 100,> 100,> 100,> 100,> 100,> 100
CC(=O)OC1COC(Nc2nc(NCc3ccccc3)n(C)c(=O)c2N=O)C(OC(C)=O)C1OC(C)=O (configuration not stated),> 10,> 10,> 10,> 10,> 10,> 10,> 10,–,> 10,> 10,> 10,> 10,> 10,> 10,> 10,> 10,–,> 10
Cc1csc(/N=C\c2c(O)c3ccccc3oc2=O)n1,> 100,–,49.5,–,–,> 100,> 100,89.8,> 100,> 100,> 100,–,–,> 100,> 100,65.1,75.9,> 100
COc1ccc(N2C=Nn3c(nc4sc5c(c4c3=O)CCCC5)C2)cc1,> 100,–,93.1,68,> 100,> 100,> 100,41.8,> 100,> 100,> 100,> 100,57.1,> 100,> 100,> 100,> 100,> 100
CCNC(=O)c1c(O)c2ccccc2[nH]c1=O,> 100,> 100,–,> 100,> 100,> 100,> 100,> 100,> 100,> 100,> 100,> 100,> 100,> 100,> 100,> 100,> 100,> 100
CC[C@H]1C=CCC[C@@]2(C[C@@H]3CC[C@H]4[C@@H](C(=O)OCCCCCCCCCCCCCCCC(=O)N(CCCN)C[C@@H](O)CCN)[C@@]5(CCC[C@@H](C)O5)NC(=[N+]34)N2)O1,4.93,4.24,3.29,3.68,3.36,> 10,3.01,4.1,4.41,2.96,> 10,2.88,4.41,3.61,2.96,–,> 10,3.07
CCOC(=O)C(NC(=O)c1ccccc1)(N1CCOCC1)C(F)(F)F (configuration not stated),> 100,> 100,> 100,> 100,–,> 100,> 100,> 100,> 100,> 100,> 100,> 100,> 100,> 100,> 100,> 100,> 100,> 100
O=C(N/N=C(/COc1ccc([N+](=O)[O-])cc1)N=Cc1ccncc1)c1ccncc1,> 100,> 100,> 100,> 100,> 100,> 100,> 100,–,> 100,> 100,> 100,> 100,> 100,> 100,> 100,> 100,–,> 100
Cc1ccc2oc(=O)c(C(=O)Nc3nc(C45CC6CC(CC(C6)C4)C5)cs3)cc2c1,> 100,> 100,–,> 100,> 100,> 100,> 100,> 100,> 100,> 100,> 100,> 100,> 100,> 100,> 100,> 100,> 100,> 100
Clc1ccc(C2Nc3ccccc3C3=NCCN32)cc1 (configuration not stated),38.3,57.1,41.3,35.4,53,> 100,39.8,34,56.5,71.5,60.4,34.6,58.8,> 100,38.5,–,> 100,–
Cc1ccc2nc(-c3ccc(N4C(=O)C(Cl)C4c4ccc(Cl)cc4)cc3)sc2c1 (configuration not stated),81.1,> 100,–,32.1,46.2,81.5,40.9,18.9,> 100,59.4,39.3,31.5,–,> 100,4.02,–,45.8,–
CC1(C)C2CC(=O)C1(C)C(OCc1ccccc1)C2 (configuration not stated),> 100,62.3,> 100,> 100,> 100,> 100,> 100,–,> 100,66.1,> 100,> 100,–,> 100,> 100,> 100,> 100,52.5
COc1ccc(N2C(=O)C3c4[nH]c5ccc(F)cc5c4C4CCC(c5ccccc5)CC4C3C2=O)cc1 (configuration not stated),50.6,–,59.6,> 100,46.8,> 100,> 100,36.8,40.7,> 100,> 100,32.7,–,> 100,> 100,31.6,55.5,39.1
